# Measured values as given in US20160158200A1, “Combinations of Hepatitis C Virus Inhibitors” (priority 2013, published 2016).
# What was measured:
# Format in all cases: cell-based
# [1] = system: HCV genotype 1a Y93H variant with tyrosine 93 changed to histidine in the NS5A protein; assay: microbe, parasite or virus in culture; settings: genotype 1a Y93H replicon; test compound titrated with compound N47 fixed at 200 nM versus singly
# Procedure: Combinations can be examined for synergistic activity using a variety of putative NS5A-targeting compounds and a variety of test compounds. […] The test compound can be chosen from compounds exemplified below, which were prepared by methods known in the art, or from others disclosed in the literature.
# Similarly, BMS-790052 can be tested singly and in combination with a fixed amount of compound N47 in the HCV replicon cell based assay consisting of the genotype 1a Y93H variant with tyrosine 93 changed to histidine in the NS5A protein.
# [2] = system: HCV genotype 1a L31V variant with leucine 31 changed to valine in the NS5A protein; assay: microbe, parasite or virus in culture; settings: genotype 1a L31V replicon; test compound titrated with compound N47 fixed at 200 nM versus singly
# [3] = system: HCV genotype-1a variant with glutamine 30 changed to glutamate in the NS5A protein; settings: test compound titrated with BMS-790052 fixed at 200 nM; genotype 1a Q30E replicon
# Summary of the method: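 Synergy was assessed by combining several fixed amounts of an NS5A-targeting compound with a titration of the second compound of interest.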
Compound,Fold-Synergistic G-1a (Y93H) [1] [fold],Fold-Synergistic G-1a (L31V) [2] [fold],Fold-Synergistic 1a (Q30E) [3] [fold]
COC(=O)N[C@H](C(=O)N1CCC[C@H]1c1nc(-c2ccc(-c3ccc(-c4ccc5nc([C@@H]6CCCN6C(=O)[C@@H](NC(=O)OC)C(C)C)[nH]c5c4)cc3)cc2)c[nH]1)C(C)C,>10,>10,
COC(=O)N[C@H](C(=O)N1[C@H](c2nc(-c3ccc(-c4ccc(-c5c[nH]c([C@@H]6C[C@@H]7CCC[C@@H]7N6C(=O)[C@@H](NC(=O)OC)C(C)C)n5)cc4)cc3)c[nH]2)C[C@@H]2CCC[C@@H]21)C(C)C,>100,>100,
COC(=O)N[C@H](C(=O)N1CCC[C@H]1c1ncc(-c2ccc(-c3ccc4c(c3)CCCc3[nH]c([C@@H]5CCCN5C(=O)[C@@H](NC(=O)OC)C(C)C)nc3-4)cc2)[nH]1)C(C)C,>100,>100,
COC(=O)N[C@@H](C(=O)N1CCC[C@H]1c1ncc(C#CC#Cc2cnc([C@@H]3CCCN3C(=O)[C@H](NC(=O)OC)c3ccccc3)[nH]2)[nH]1)c1ccccc1,<10,<10,
COC(=O)N[C@H](C(=O)N1CCC[C@H]1c1nc2ccc(-c3cnc(-c4cccc5nc([C@@H]6CCCN6C(=O)[C@@H](NC(=O)OC)C(C)C)[nH]c45)o3)cc2[nH]1)C(C)C,>100,<10,
CN1CCN(C(C(=O)N2CCC[C@H]2C(=O)Nc2ccc(-c3cnc(-c4ccc(NC(=O)[C@@H]5CCCN5C(=O)C(c5ccccc5)N5CCN(C)CC5)cc4)o3)cc2)c2ccccc2)CC1 (some centres unmarked),<10,<10,
COC(=O)N[C@H](C(=O)N1[C@@H]2C[C@@H]2C[C@H]1c1ncc(-c2ccc(C#Cc3ccc4c(ccc5[nH]c([C@@H]6C[C@H]7C[C@H]7N6C(=O)[C@@H](NC(=O)OC)C(C)C)nc54)c3)cc2)[nH]1)C(C)C,>10,<10,
O=C(Nc1ccc(/C=C/c2ccc(NC(=O)[C@@H]3CCCN3C(=O)Cc3cccnc3)nc2)cn1)[C@@H]1CCCN1C(=O)Cc1cccnc1,<10,<10,
COC(=O)N[C@H](C(=O)N1CCC[C@H]1c1ncc(-c2ccc([C@H]3CC[C@@H](c4ccc(-c5cnc([C@@H]6CCCN6C(=O)[C@@H](NC(=O)OC)C(C)C)[nH]5)cc4)N3c3ccc(F)cc3)cc2)[nH]1)C(C)C,>10,,
C=C1C[C@@H](c2nc(-c3ccc(-c4ccc5cc(-c6c[nH]c([C@@H]7CC(=C)CN7C(=O)[C@@H](NC(=O)OC)C(C)C)n6)ccc5c4)cc3)c[nH]2)N(C(=O)[C@@H](NC(=O)OC)C(C)C)C1,>100,<10,
COC(=O)N[C@H](C(=O)N1[C@@H]2C[C@@H]2C[C@H]1c1ncc(C#Cc2ccc3cc(-c4cnc([C@@H]5C[C@H]6C[C@H]6N5C(=O)[C@@H](NC(=O)OC)C(C)C)[nH]4)ccc3c2)[nH]1)C(C)C,>100,>100,
CN(C)[C@@H](C(=O)N1CCC[C@H]1c1ncc(-c2ccc(-c3ccc(-c4ccc(-c5cnc([C@@H]6CCCN6C(=O)[C@@H](c6ccccc6)N(C)C)[nH]5)cc4)cc3)cc2)[nH]1)c1ccccc1,<10,<10,
COC(=O)N[C@H](C(=O)N1C[C@@H]2C[C@@H]2[C@H]1c1ncc(-c2ccc(-c3ccc(-c4cnc([C@@H]5[C@H]6C[C@H]6CN5C(=O)[C@@H](NC(=O)OC)C(C)C)[nH]4)cc3)cc2)[nH]1)C(C)C,>100,>100,
COC(=O)N[C@H](C(=O)N1[C@@H]2C[C@@H]2C[C@H]1c1nc(-c2cccc3c(-c4ccc(-c5cnc([C@@H]6C[C@H]7C[C@H]7N6C(=O)[C@@H](NC(=O)OC)C(C)C)[nH]5)cc4)cccc23)c[nH]1)C(C)C,>100,>100,
COC(=O)N[C@H](C(=O)N1CCC[C@H]1c1nc2cc(-c3ccc4c(ccc5[nH]c([C@@H]6CCCN6C(=O)[C@@H](NC(=O)OC)C(C)C)nc54)c3)ccc2[nH]1)C(C)C,>100,>10,
COC(=O)N[C@H](C(=O)N1[C@@H]2C[C@@H]2C[C@H]1c1ncc(-c2ccc(-c3ccc(-c4ccc(-c5cnc([C@@H]6C[C@H]7C[C@H]7N6C(=O)[C@@H](NC(=O)OC)C(C)C)[nH]5)cc4)c4[nH]ccc34)cc2)[nH]1)C(C)C,>10,>10,
COC(=O)N[C@H](C(=O)N1[C@@H]2C[C@@H]2C[C@H]1c1cnc(-c2ccc(C#Cc3ccc(-c4ncc([C@@H]5C[C@H]6C[C@H]6N5C(=O)[C@@H](NC(=O)OC)C(C)C)[nH]4)cc3)cc2)[nH]1)C(C)C,>10,<10,
COC(=O)N[C@H](C(=O)N1C[C@H](C)C[C@H]1c1ncc(-c2ccc(-c3ccc4cc(-c5cnc([C@@H]6C[C@@H](C)CN6C(=O)[C@@H](NC(=O)OC)C(C)C)[nH]5)ccc4c3)cc2)[nH]1)C(C)C,>10,<10,
O=C(Nc1ccc(C#Cc2ccc(NC(=O)[C@@H]3CCCN3C(=O)Cc3ccccc3)cn2)nc1)[C@@H]1CCCN1C(=O)Cc1ccccc1,<10,<10,
CCN(CC)[C@@H](C(=O)N1CCC[C@H]1c1nc2c([nH]1)CCCc1cc(-c3ccc4nc([C@@H]5CCCN5C(=O)[C@@H](c5ccccc5)N(CC)CC)[nH]c4c3)ccc1-2)c1ccccc1,<10,<10,
COC(=O)N[C@H](C(=O)N1CCC[C@H]1c1nc2cc(-c3ccc4cc(-c5cnc6[nH]c([C@@H]7CCCN7C(=O)[C@@H](NC(=O)OC)C(C)C)nc6c5)ccc4c3)cnc2[nH]1)C(C)C,>10,>10,
COC(=O)N[C@H](C(=O)N1[C@@H]2C[C@@H]2C[C@H]1c1ncc(-c2ccc(-c3ccc4nc(-c5cnc([C@@H]6C[C@H]7C[C@H]7N6C(=O)[C@@H](NC(=O)OC)C(C)C)[nH]5)ccc4c3)cc2)[nH]1)C(C)C,>10,<10,
COC(=O)N[C@H](C(=O)N1CCC[C@H]1c1nc(-c2ccc(-c3ccc4nc([C@@H]5CCCN5C(=O)[C@@H](NC(=O)OC)C(C)C)[nH]c4c3)cc2)c[nH]1)C(C)C,>100,>10,
COC(=O)N[C@H](C(=O)N1CCC[C@H]1c1ncc(-c2ccc([C@H]3CC[C@H](c4ccc(-c5cnc([C@@H]6CCCN6C(=O)[C@@H](NC(=O)OC)C(C)C)[nH]5)cc4)N3c3ccc(F)cc3)cc2)[nH]1)C(C)C,>10,,
CC(C)[C@H](NC(=O)C1(C(F)(F)F)CC1)c1ncc(-c2ccc(-c3ccc(-c4cnc([C@@H](NC(=O)C5(C(F)(F)F)CC5)C(C)C)[nH]4)cc3)cc2)[nH]1 [Compound P-88],,,>100
